Results reported in PubChem BioAssay (NCI).
Where “and” joins values, the source holds several entries; their conditions need not be identical. Equal entries are not always repeated.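 Protocol summary: plate cells (96-well), add compound at 5 concentrations, incubate 48 h, interpolate endpoints linearly. GI50 = concentration required for 50% inhibition of growth. TGI: total growth inhibition.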

What was measured:
Assay in all cases: inhibition of tumour cell growth, NCI panel, 48 h
[1] = system: DMS 114 small cell lung
[2] = system: ACHN renal
[3] = system: OVCAR-4 ovarian
[4] = system: DMS 273 small cell lung
[5] = system: HT29 colon
[6] = system: KM20L2 colon
[7] = system: HL-60(TB) leukemia
[8] = system: HOP-18 NSCLC
[9] = system: COLO 205 colon
[10] = system: OVCAR-5 ovarian
[11] = system: UACC-62 melanoma
[12] = system: DU-145 prostate

| SMILES | TGI [1] | TGI [2] | TGI [3] | TGI [4] | TGI [5] | TGI [6] | TGI [7] | TGI [8] | TGI [9] | TGI [10] | TGI [11] | GI50 [2] | TGI [12] | GI50 [7] | GI50 [9] |
| --- | --- | --- | --- | --- | --- | --- | --- | --- | --- | --- | --- | --- | --- | --- | --- |
| COC(=O)C1C(/C=C/c2ccoc2)ON2CCC[C@@H]12 (some centres undefined) | > 100 µM | > 100 µM | > 100 µM | > 100 µM | > 100 µM | > 100 µM | > 100 µM | 98 µM | > 100 µM | > 100 µM | – | – | – | – | – |
| Cc1cc(Cl)ccc1NC(=O)C(=O)Cc1occc(=O)c1O | > 100 µM | > 100 µM | > 100 µM | > 100 µM | > 100 µM | > 100 µM | > 100 µM | > 100 µM | > 100 µM | > 100 µM | > 100 µM | – | – | – | – |
| Nc1ccc(C2=Nc3ccccc3SC(c3ccccc3O)C2)cc1 (centres undefined) | 49.4 µM | > 100 µM | > 100 µM | > 100 µM | > 100 µM | > 100 µM | 62.7 µM | > 100 µM | > 100 µM | > 100 µM | > 100 µM | – | – | – | – |
| Cc1ccc(Nc2nc(C)c(C(/C=C/c3ccc4c(c3)OCO4)=N/Nc3ccc([N+](=O)[O-])cc3[N+](=O)[O-])s2)c([N+](=O)[O-])c1 | > 100 µM | > 100 µM | > 100 µM | > 100 µM | > 100 µM | > 100 µM | 95 µM | 63.7 µM | > 100 µM | > 100 µM | 17.8 µM | – | – | – | – |
| O=C1/C(=C\c2ccccc2)c2ccccc2N1/N=C\c1ccccc1 | > 100 µM | > 100 µM | > 100 µM | > 100 µM | > 100 µM | > 100 µM | – | > 100 µM | > 100 µM | > 100 µM | > 100 µM | – | – | – | – |
| CC1(C)N=C(Oc2ccccc2)n2nccc2N1 | > 100 µM | > 100 µM | > 100 µM | > 100 µM | > 100 µM | > 100 µM | > 100 µM | > 100 µM | > 100 µM | > 100 µM | > 100 µM | – | – | – | – |
| N#CC(C(=O)CCC(=O)Nc1ccc(Cl)c(Cl)c1)c1ccc(Cl)cc1 (centres undefined) | > 100 µM | > 100 µM | > 100 µM | > 100 µM | > 100 µM | > 100 µM | > 100 µM | > 100 µM | – | > 100 µM | > 100 µM | – | – | – | – |
| NS(=O)(=O)c1ccc(NC(=O)c2cccc3c(Nc4ccc(S(N)(=O)=O)cc4)c4ccccc4nc23)cc1 | > 100 µM | > 100 µM | 55.6 µM | 5.15 µM | 68.4 µM | > 100 µM | 96.8 µM | > 100 µM | > 100 µM | > 100 µM | > 100 µM | – | – | – | – |
| O=S(=O)(N/N=C/c1ccc(Cl)cc1Cl)c1ccccc1 | 89.9 µM | > 100 µM | > 100 µM | > 100 µM | > 100 µM | > 100 µM | 56.9 µM | > 100 µM | > 100 µM | > 100 µM | > 100 µM | – | – | – | – |
| COc1cc2c3cc1Oc1c(OC)c(OC)cc4c1C(Cc1ccc(cc1)Oc1cc(ccc1O)CC3N(C)CC2)N(C)CC4 (centres undefined) | 24.8 µM | 46.1 µM and 15.8 µM | 29.6 µM and 31.3 µM | – | 20.9 µM and 14.1 µM | 24.7 µM | 30.5 µM and 7.29 µM | > 100 µM | 23 µM and 11.3 µM | 67.4 µM and 29.6 µM | 28.5 µM and 21.7 µM | 14.5 µM and 4.72 µM | 24.8 µM | 5.61 µM and 1.88 µM | 11 µM and 1.52 µM |
| COc1ccc(/C=N\O[Si](C)(C)C(C)(C)C)cc1O[Si](C)(C)C(C)(C)C | 35.6 µM | 33.3 µM | 46.3 µM | 34.1 µM | 36.2 µM | > 100 µM | 38.1 µM | 31.1 µM | 52.2 µM | 39 µM | 40.2 µM | – | – | – | – |
| O=C(O)C1CC2CC(=O)C1C2 (centres undefined) | – | > 100 µM | > 100 µM | > 100 µM | > 100 µM | > 100 µM | > 100 µM | > 100 µM | > 100 µM | > 100 µM | > 100 µM | – | – | – | – |
| O=C(CC(=O)c1ccccc1)C(=O)NC12CC3CC(CC(C3)C1)C2 | > 58.4 µM | > 100 µM | > 100 µM | > 70.2 µM | > 100 µM | > 100 µM | > 69.1 µM | > 100 µM | > 64.8 µM | > 100 µM | > 100 µM | – | – | – | – |
| OC1c2ccccc2C2C(O)c3ccccc3C12 (centres undefined) | > 100 µM | > 100 µM | > 100 µM | > 100 µM | > 100 µM | > 100 µM | > 100 µM | > 100 µM | > 100 µM | > 100 µM | > 100 µM | – | – | – | – |
| COc1cc(/C=C\c2ccc(Cl)cc2)cc(OC)c1OC | > 91.8 µM | > 100 µM | > 100 µM | 19.4 µM | 10.2 µM | 0.372 µM | 2.45 µM | > 100 µM | > 36.3 µM | > 31.6 µM | > 100 µM | – | – | – | – |
| O=C1NN=C(c2ccc([N+](=O)[O-])cc2)C1n1nc(-c2ccccc2)c2ccccc2c1=O (centres undefined) | – | > 100 µM | > 100 µM | > 68.3 µM | > 100 µM | > 100 µM | > 64.4 µM | > 100 µM | > 100 µM | > 100 µM | > 100 µM | – | – | – | – |
